Measurements: PubChem BioAssay AID330 (DTP/NCI, 2004)
Where “and” joins values, the source holds several entries; their conditions need not be identical. Identical values can stand only once. Inconclusive results and toxic doses are left out.

Test system: P388 leukemia ip, CD2F1 mice, survival T/C
Experiment: NCI In Vivo Anticancer Drug Screen. Data for tumor model P388 Leukemia (intraperitoneal) in CD2F1 (CDF1) mice
Conditions: endpoint: median survival time, higher = longer survival
Method in brief: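 Mice carrying the transplanted tumor received test compound or vehicle. Survival was recorded in each group, and the value is the treated-group measurement divided by that of the vehicle-treated control group.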

[1] = dose: 100.0 mg/kg/injection, schedule: Q04DX003 (ip), vehicle: Klucel (hydroxypropylcellulose) (HPC)
[2] = dose: 200.0 mg/kg/injection, schedule: Q04DX003 (ip), vehicle: Klucel (hydroxypropylcellulose) (HPC)
[3] = dose: 400.0 mg/kg/injection, schedule: Q04DX003 (ip), vehicle: Klucel (hydroxypropylcellulose) (HPC)
[4] = dose: 60.0 mg/kg/injection, schedule: Q01DX005 (ip), vehicle: saline with Tween-80
[5] = dose: 120.0 mg/kg/injection, schedule: Q01DX005 (ip), vehicle: saline with Tween-80
[6] = dose: 240.0 mg/kg/injection, schedule: Q01DX005 (ip), vehicle: saline with Tween-80
[7] = dose: 60.0 mg/kg/injection, schedule: Q01DX005 (ip), vehicle: saline
[8] = dose: 120.0 mg/kg/injection, schedule: Q01DX005 (ip), vehicle: saline
[9] = dose: 240.0 mg/kg/injection, schedule: Q01DX005 (ip), vehicle: saline
[10] = dose: 60.0 mg/kg/injection, schedule: Q01DX005 (ip), vehicle: Klucel (hydroxypropylcellulose) (HPC)
[11] = dose: 120.0 mg/kg/injection, schedule: Q01DX005 (ip), vehicle: Klucel (hydroxypropylcellulose) (HPC)
[12] = dose: 240.0 mg/kg/injection, schedule: Q01DX005 (ip), vehicle: Klucel (hydroxypropylcellulose) (HPC)
[13] = dose: 50.0 mg/kg/injection, schedule: Q01DX005 (ip), vehicle: saline with Tween-80
[14] = dose: 100.0 mg/kg/injection, schedule: Q01DX005 (ip), vehicle: saline with Tween-80
[15] = dose: 200.0 mg/kg/injection, schedule: Q01DX005 (ip), vehicle: saline with Tween-80
[16] = dose: 50.0 mg/kg/injection, schedule: Q01DX009 (ip), vehicle: Klucel (hydroxypropylcellulose) (HPC)
[17] = dose: 100.0 mg/kg/injection, schedule: Q01DX009 (ip), vehicle: Klucel (hydroxypropylcellulose) (HPC)
[18] = dose: 200.0 mg/kg/injection, schedule: Q01DX009 (ip), vehicle: Klucel (hydroxypropylcellulose) (HPC)
[19] = dose: 100.0 mg/kg/injection, schedule: Q01DX009 (ip), vehicle: saline with Tween-80
[20] = dose: 200.0 mg/kg/injection, schedule: Q01DX009 (ip), vehicle: saline with Tween-80
[21] = dose: 25.0 mg/kg/injection, schedule: Q01DX009 (ip), vehicle: Klucel (hydroxypropylcellulose) (HPC)

In the case of CC(C)N1C(=O)c2ccccc2S12c1ccccc1C(=O)N2C(C)C, the T/C [1] was 93 % of control, the T/C [2] was 90 % of control and the T/C [3] was 90 % of control.

CCC1OC(=O)C1[Si](C)(C)C (centres undefined) was tested, and the T/C (dose: 100.0 mg/kg/injection, schedule: Q01DX001 (ip), vehicle: saline) was 99 % of control, the T/C (dose: 200.0 mg/kg/injection, schedule: Q01DX001 (ip), vehicle: saline) was 103 % of control and the T/C (dose: 400.0 mg/kg/injection, schedule: Q01DX001 (ip), vehicle: saline) was 103 % of control.

In the case of O=c1[nH]cc(Cn2cnc3ncccc3c2=O)c(=O)[nH]1, the T/C (dose: 100.0 mg/kg/injection, schedule: Q01DX001 (ip), vehicle: suspension in saline) was 93 % of control, the T/C (dose: 200.0 mg/kg/injection, schedule: Q01DX001 (ip), vehicle: suspension in saline) was 105 % of control and the T/C (dose: 400.0 mg/kg/injection, schedule: Q01DX001 (ip), vehicle: suspension in saline) was 112 % of control.

CCCCCCCC(=O)OOC(C)(C)C was tested, and the T/C [4] was 105 % of control, the T/C [5] was 105 % of control and the T/C [6] was 108 % of control.

In the case of CC(C)N(CC#CCO)CCO, the T/C [7] was 99 % of control, the T/C [8] was 100 % of control and the T/C [9] was 99 % of control.

With CCn1c2ccccc2c2cc(N=C3C(=O)N(C)c4ccccc43)ccc21 the T/C [10] was 90 % of control, the T/C [11] was 92 % of control and the T/C [12] was 90 % of control.

CC(C)NC(=S)S was tested, and the T/C (dose: 25.0 mg/kg/injection, schedule: Q01DX009 (ip), vehicle: saline sonified) was 104 % of control, the T/C (dose: 50.0 mg/kg/injection, schedule: Q01DX009 (ip), vehicle: saline sonified) was 100 % of control and the T/C (dose: 100.0 mg/kg/injection, schedule: Q01DX009 (ip), vehicle: saline sonified) was 109 % of control.

For CCCC1OC1(CC)COC(=O)NC (centres undefined), the T/C [13] was 100 % of control, the T/C [14] was 101 % of control and the T/C [15] was 117 % of control.

O=C(NO)Nc1cc(Cl)cc(Cl)c1 was tested, and the T/C [4] was 114 % of control and the T/C [5] was 114 % of control.

For Cc1cc(Cl)c2cc3c(cc2n1)OCO3, the T/C (dose: 50.0 mg/kg/injection, schedule: Q01DX005 (ip), vehicle: Klucel (hydroxypropylcellulose) (HPC)) was 106 % of control, the T/C (dose: 100.0 mg/kg/injection, schedule: Q01DX005 (ip), vehicle: Klucel (hydroxypropylcellulose) (HPC)) was 104 % of control and the T/C (dose: 200.0 mg/kg/injection, schedule: Q01DX005 (ip), vehicle: Klucel (hydroxypropylcellulose) (HPC)) was 98 % of control.

For O=C(O)Cc1sc(=O)[nH]c1O, the T/C (dose: 100.0 mg/kg/injection, schedule: Q04DX003 (ip), vehicle: saline) was 100 % of control, the T/C (dose: 200.0 mg/kg/injection, schedule: Q04DX003 (ip), vehicle: saline) was 100 % of control and the T/C (dose: 400.0 mg/kg/injection, schedule: Q04DX003 (ip), vehicle: saline) was 95 % of control.

For CCn1c2ccccc2c2cc(N=Nc3ccc(N)nc3N)ccc21, the T/C [13] was 94 % of control, the T/C [14] was 94 % of control and the T/C [15] was 96 % of control.

In the case of O=C(CNC1=NCCN1)Nc1ccc(NC(=O)c2ccc(C(=O)Nc3ccc(NC(=O)CNC4=NCCN4)cc3)cc2)cc1, the T/C [13] was 118 % of control and 124 % of control, the T/C [15] was 189 % of control and the T/C (dose: 400.0 mg/kg/injection, schedule: Q01DX005 (ip), vehicle: saline with Tween-80) was 96 % of control.

With NC(=O)[C@H]1C[C@H](O)CN1C(=O)c1cnc2ccccc2c1 the T/C [7] was 112 % of control, the T/C [8] was 98 % of control and the T/C [9] was 102 % of control.

In the case of O=S(=O)(Nc1ccccn1)c1ccc(NCc2c3ccccc3nc3cc(Cl)ccc23)cc1, the T/C [4] was 97 % of control, the T/C [5] was 98 % of control and the T/C [6] was 96 % of control.

With Cc1nc([N+](=O)[O-])cn1-c1nc2ccccn2c1[N+](=O)[O-] the T/C [16] was 92 % of control, the T/C [17] was 94 % of control and the T/C [18] was 91 % of control.

CS(=O)(=O)CC(=N\O)/C(CS(C)(=O)=O)=N/O was tested, and the T/C [7] was 103 % of control, the T/C [8] was 94 % of control and the T/C [9] was 103 % of control.

In the case of COc1ccc(OC)c(/C=C/c2ccc3ccccc3n2)c1, the T/C [19] was 90 % of control, the T/C [20] was 90 % of control and the T/C (dose: 400.0 mg/kg/injection, schedule: Q01DX009 (ip), vehicle: saline with Tween-80) was 104 % of control.

For C[C@H]1C[C@@H]2[C@H]([C@@H](O)C[C@@]3(C)[C@H]2CC[C@]3(O)C(=O)CO)[C@@]2(C)C=CC(=O)C=C12, the T/C (dose: 50.0 mg/kg/injection, schedule: Q01DX009 (ip), vehicle: saline with Tween-80) was 100 % of control, the T/C (dose: 66.0 mg/kg/injection, schedule: Q01DX009 (ip), vehicle: saline with Tween-80) was 95 % of control and the T/C [19] was 100 % of control. The T/C (dose: 100.0 mg/kg/injection, schedule: Q04DX003 (ip), vehicle: saline with Tween-80) was 106 % of control and 112 % of control, the T/C (dose: 132.0 mg/kg/injection, schedule: Q04DX003 (ip), vehicle: saline with Tween-80) was 109 % of control and the T/C (dose: 150.0 mg/kg/injection, schedule: Q01DX009 (ip), vehicle: saline with Tween-80) was 90 % of control. The T/C [20] was 97 % of control, the T/C (dose: 200.0 mg/kg/injection, schedule: Q04DX003 (ip), vehicle: saline with Tween-80) was 108 % of control and 109 % of control and the T/C (dose: 300.0 mg/kg/injection, schedule: Q04DX003 (ip), vehicle: saline with Tween-80) was 95 % of control. The T/C (dose: 400.0 mg/kg/injection, schedule: Q04DX003 (ip), vehicle: saline with Tween-80) was 104 % of control and 108 % of control.

In the case of COc1ccc2c(c1)C(=O)C=C(c1ccccc1)S2(=O)=O, the T/C [10] was 110 % of control, the T/C [11] was 110 % of control and the T/C [12] was 117 % of control.

For Cc1ccccc1Nc1ccnc2c1ccc1ccccc12, the T/C [13] was 88 % of control, the T/C [14] was 92 % of control and the T/C [15] was 88 % of control.

O=C(OC(C(F)(F)F)C(F)(F)F)c1ccccc1 was tested, and the T/C [1] was 105 % of control, the T/C [2] was 101 % of control and the T/C [3] was 109 % of control.

O=C1C(=C2C=CN(CCN3CCCCC3)C=C2)C(=O)c2ccccc21 was tested, and the T/C [16] was 100 % of control, the T/C [17] was 100 % of control and the T/C [18] was 87 % of control.

For O=C(O)C1CC1.[Ag], the T/C (dose: 3.12 mg/kg/injection, schedule: Q01DX009 (ip), vehicle: saline with Tween-80) was 153 % of control and the T/C (dose: 6.25 mg/kg/injection, schedule: Q01DX009 (ip), vehicle: saline with Tween-80) was 97 % of control.

With CCCCN1C(=O)C(=O)N(c2ccccc2)C1=O the T/C [4] was 102 % of control, the T/C [5] was 102 % of control and the T/C [6] was 94 % of control.

CN(C)c1ncnc2c1ccn2CC(O)CO (centres undefined) was tested, and the T/C (dose: 50.0 mg/kg/injection, schedule: Q01DX005 (ip), vehicle: distilled water + alcohol) was 109 % of control, the T/C (dose: 100.0 mg/kg/injection, schedule: Q01DX005 (ip), vehicle: distilled water + alcohol) was 101 % of control and the T/C (dose: 200.0 mg/kg/injection, schedule: Q01DX005 (ip), vehicle: distilled water + alcohol) was 97 % of control.

For CC(C)=CC1CC(=O)OC1(C)C (centres undefined), the T/C (dose: 12.5 mg/kg/injection, schedule: Q04DX002 (ip), vehicle: saline with Tween-80) was 98 % of control, the T/C (dose: 25.0 mg/kg/injection, schedule: Q04DX002 (ip), vehicle: saline with Tween-80) was 104 % of control and the T/C (dose: 50.0 mg/kg/injection, schedule: Q04DX002 (ip), vehicle: saline with Tween-80) was 100 % of control.

In the case of CCCCCCCCC(=O)C(=O)c1ccc(O)cc1O, the T/C [16] was 113 % of control, the T/C [17] was 113 % of control and the T/C [18] was 113 % of control.

For Cc1[nH]c(C)c(Cl)c(=O)c1Cl, the T/C (dose: 6.25 mg/kg/injection, schedule: Q01DX009 (ip), vehicle: Klucel (hydroxypropylcellulose) (HPC)) was 98 % of control, the T/C (dose: 12.5 mg/kg/injection, schedule: Q01DX009 (ip), vehicle: Klucel (hydroxypropylcellulose) (HPC)) was 100 % of control and the T/C [21] was 115 % of control.

Cn1nc(CC#N)c2c(=N)n(N)cnc21 was tested, and the T/C [21] was 119 % of control, the T/C [16] was 109 % of control and the T/C [17] was 104 % of control. The T/C [18] was 113 % of control.

For CSc1nc(SC)c2cnn(COCCO)c2n1, the T/C [13] was 92 % of control, the T/C [14] was 92 % of control and the T/C [15] was 92 % of control.
